# How the values were obtained:
# [1] = target: T1, mERβ2 (Oryzias latipes, UniProt B1B6T4); experiment: Competitive ligand binding assay; design: species or system medaka; details: for RBA (%) mERβ2: ratio of IC50 of E2β to IC50 of competitor
# T1 sequence (B1B6T4 1-542): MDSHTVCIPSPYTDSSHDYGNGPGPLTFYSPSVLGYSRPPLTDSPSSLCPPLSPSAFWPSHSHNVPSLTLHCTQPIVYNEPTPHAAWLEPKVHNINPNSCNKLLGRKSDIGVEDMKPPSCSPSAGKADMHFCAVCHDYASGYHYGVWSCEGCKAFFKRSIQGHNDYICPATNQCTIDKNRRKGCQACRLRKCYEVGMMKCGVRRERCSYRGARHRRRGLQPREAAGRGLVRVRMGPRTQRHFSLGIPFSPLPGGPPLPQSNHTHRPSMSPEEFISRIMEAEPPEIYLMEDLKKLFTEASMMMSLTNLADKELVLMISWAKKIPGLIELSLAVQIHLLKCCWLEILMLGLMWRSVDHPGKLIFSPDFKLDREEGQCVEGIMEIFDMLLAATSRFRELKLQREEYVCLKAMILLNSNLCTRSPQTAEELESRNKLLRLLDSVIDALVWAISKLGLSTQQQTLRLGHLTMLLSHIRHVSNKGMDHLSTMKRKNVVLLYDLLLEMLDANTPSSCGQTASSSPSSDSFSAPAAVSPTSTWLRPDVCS
# [2] = tested on: mERα, mERβ1, and mERβ2; experiment: Ligand binding assays, comparison of affinity across mER subtypes; design: species or system medaka; details: from IC50 of competitive binding
# [3] = tested on: hepatic gene expression in male Japanese medaka; experiment: Medaka 7-day waterborne exposure, hepatic gene expression by qPCR; format: in vivo, Japanese medaka (Oryzias latipes)
# [4] = tested on: hERα and hERβ; experiment: T47D-KBluc estrogen screening assay, luciferase reporter; details: YES-calibrated stock solutions
# [5] = target: T2, mERβ1 (Oryzias latipes, UniProt A0ACM8PZQ7); experiment: Competitive ligand binding assay; design: species or system medaka; details: for RBA (%) mERβ1: ratio of IC50 of E2β to IC50 of competitor
# T2 sequence (A0ACM8PZQ7 1-562): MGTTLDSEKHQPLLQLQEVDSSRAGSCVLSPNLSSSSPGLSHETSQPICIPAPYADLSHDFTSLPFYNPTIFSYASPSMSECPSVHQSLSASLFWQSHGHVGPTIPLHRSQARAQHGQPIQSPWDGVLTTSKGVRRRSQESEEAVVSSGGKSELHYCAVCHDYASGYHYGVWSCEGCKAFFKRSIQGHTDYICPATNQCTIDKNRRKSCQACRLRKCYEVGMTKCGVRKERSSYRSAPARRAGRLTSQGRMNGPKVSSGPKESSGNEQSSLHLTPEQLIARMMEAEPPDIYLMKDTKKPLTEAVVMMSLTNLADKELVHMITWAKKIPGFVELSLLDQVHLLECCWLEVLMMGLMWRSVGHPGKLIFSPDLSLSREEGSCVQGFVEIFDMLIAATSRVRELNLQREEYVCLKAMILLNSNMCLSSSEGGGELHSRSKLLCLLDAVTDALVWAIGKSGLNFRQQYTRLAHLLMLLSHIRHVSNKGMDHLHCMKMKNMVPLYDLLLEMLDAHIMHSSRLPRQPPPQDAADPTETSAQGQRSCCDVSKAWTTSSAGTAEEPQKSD
# [6] = target: T3, mERα (Oryzias latipes, UniProt P50241); experiment: biochemical; format: binding, medaka
# T3 sequence (P50241 1-620): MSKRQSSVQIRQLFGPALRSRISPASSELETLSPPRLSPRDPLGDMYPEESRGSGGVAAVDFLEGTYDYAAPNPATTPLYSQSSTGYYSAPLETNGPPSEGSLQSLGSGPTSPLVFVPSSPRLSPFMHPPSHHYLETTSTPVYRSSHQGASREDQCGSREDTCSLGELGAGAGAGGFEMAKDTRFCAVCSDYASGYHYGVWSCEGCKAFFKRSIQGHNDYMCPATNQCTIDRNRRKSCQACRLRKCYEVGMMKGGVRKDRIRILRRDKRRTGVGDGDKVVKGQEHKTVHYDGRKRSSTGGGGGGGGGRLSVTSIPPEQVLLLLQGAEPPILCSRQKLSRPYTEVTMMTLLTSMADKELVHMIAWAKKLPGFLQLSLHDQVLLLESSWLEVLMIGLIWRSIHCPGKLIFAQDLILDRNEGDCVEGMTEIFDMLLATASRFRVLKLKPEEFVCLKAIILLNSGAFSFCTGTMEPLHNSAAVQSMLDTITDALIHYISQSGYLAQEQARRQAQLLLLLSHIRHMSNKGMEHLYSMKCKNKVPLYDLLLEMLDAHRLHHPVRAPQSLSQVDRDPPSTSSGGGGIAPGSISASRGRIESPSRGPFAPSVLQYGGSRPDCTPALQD
# [7] = male medaka liver, 7 days, YES-derived EEQ 0.64 nM, relative to negative control
# [8] = liver of E2β-exposed male medaka, mERα expression as calibrator
IC50 [1] [nM],RBA (%) mERβ2 [1] [%],higher affinity for mERβ1 versus mERβ2 [2] [fold],IC50 [5] [nM],RBA (%) mERβ1 [5] [%],potency less in the T47D-KBluc versus the YES [4] [fold],SMILES,"mERα induction [3, 7] [fold]",more potent in the T47D-KBluc versus the YES [4],IC50 [6] [nM],RBA (%) mERα ([6]; ratio of IC50 of E2β to IC50 of competitor) [%],"mERα expression above mERβ1 [3, 8] [fold]","mERα expression above mERβ2 [3, 8] [fold]","Chg-H gene induction [3, 7]","Chg-Hm gene induction [3, 7]","Chg-L gene induction [3, 7] [fold]","Vtg-1 gene induction [3, 7]","Vtg-2 gene induction [3, 7]"
34.2,6.1,1.9,18.1,10.0,,"C[C@]12CC[C@@H]3c4ccc(O)cc4CC[C@H]3[C@@H]1C[C@@H](O)[C@@H]2O [E3, estriol]",67,approximately 10 fold,,,,,,,,,
31.1,6.8,,18.8,9.6,3.3,"C[C@]12CC[C@@H]3c4ccc(O)cc4CC[C@H]3[C@@H]1CC[C@H]2O [E2α, 17α-estradiol]",24,,,,,,,,,,
2.1,100.0,,1.8,100.0,,"C[C@]12CC[C@@H]3c4ccc(O)cc4CC[C@H]3[C@@H]1CC[C@@H]2O [E2β, 17β-estradiol]",72,,,,23,5,"12,730 fold","3,796 fold",324,"27,004 fold","73,735 fold"

SMILES,IC50 [1] [nM],RBA (%) mERβ2 [1] [%],higher affinity for mERβ1 versus mERβ2 [2] [fold],IC50 [5] [nM],RBA (%) mERβ1 [5] [%],potency less in the T47D-KBluc versus the YES [4] [fold],"mERα induction [3, 7] [fold]",more potent in the T47D-KBluc versus the YES [4],IC50 [6] [nM],RBA (%) mERα ([6]; ratio of IC50 of E2β to IC50 of competitor) [%],"mERα expression above mERβ1 [3, 8] [fold]","mERα expression above mERβ2 [3, 8] [fold]","Chg-H gene induction [3, 7]","Chg-Hm gene induction [3, 7]","Chg-L gene induction [3, 7] [fold]","Vtg-1 gene induction [3, 7]","Vtg-2 gene induction [3, 7]"
"C[C@]12CC[C@@H]3c4ccc(O)cc4CC[C@H]3[C@@H]1CCC2=O [E1, estrone]",14.4,14.6,,14.4,12.6,,56,slightly more potent,8.4,36.7,,,,,,,

# From article PMC4014147 (Environmental Science & Technology, 2014)
